# In ChEMBL document CHEMBL1126551, “Three-dimensional quantitative structure-activity relationships of 5-HT receptor binding data for tetrahydropyridinylindole derivatives: a comparison of the Hansch and CoMFA methods” (J Med Chem, 1993):
# Target: T1, 5-hydroxytryptamine receptor 1A (Rattus norvegicus, UniProt P19327)
# T1 sequence (P19327 whole entry): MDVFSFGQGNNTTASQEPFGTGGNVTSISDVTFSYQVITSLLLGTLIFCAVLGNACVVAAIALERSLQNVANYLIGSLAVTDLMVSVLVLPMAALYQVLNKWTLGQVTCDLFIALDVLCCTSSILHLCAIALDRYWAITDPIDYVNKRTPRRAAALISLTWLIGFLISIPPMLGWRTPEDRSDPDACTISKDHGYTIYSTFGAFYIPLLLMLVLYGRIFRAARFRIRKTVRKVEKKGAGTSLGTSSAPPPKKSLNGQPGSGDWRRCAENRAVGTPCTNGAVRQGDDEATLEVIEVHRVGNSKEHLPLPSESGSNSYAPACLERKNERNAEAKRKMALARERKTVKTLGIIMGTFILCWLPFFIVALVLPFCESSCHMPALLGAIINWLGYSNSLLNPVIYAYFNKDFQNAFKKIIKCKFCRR
# Description: Binding affinity towards 5-hydroxytryptamine 1A receptor using [3H]8-OH-DPAT as radioligand.
row,SMILES,Ki [nM]
1,CCOC(=O)c1ccc2[nH]cc(C3=CCN(C)CC3)c2c1,36.1
2,CN1CC=C(c2c[nH]c3ccc(NS(C)(=O)=O)cc23)CC1,692
3,CCCN1CC=C(c2c[nH]c3ccc(OC)cc23)CC1,363
4,CCCN1CC=C(c2c[nH]c3ccc(C#N)cc23)CC1,303
5,CN1CC=C(c2c[nH]c3ccc([S+](C)[O-])cc23)CC1 (stereo unspecified),105
6,COc1ccc2[nH]c(C)c(C3=CCN(C)CC3)c2c1,345
7,CN1CC=C(c2c[nH]c3ccc(-c4ccccn4)cc23)CC1,25.1
8,Cc1ccc2[nH]cc(C3=CCN(C)CC3)c2c1,146
9,O=[N+]([O-])c1ccc2[nH]cc(C3=CCNCC3)c2c1,64.6
10,CCN1CC=C(c2c[nH]c3ccc(C(=O)OC)cc23)CC1,384
11,CN1CCC(c2c[nH]c3ccccc23)CC1,513
12,C1=C(c2c[nH]c3ccccc23)CCNC1,189
13,CN1CC=C(c2c[nH]c3ccc(C(C)(C)O)cc23)CC1,187
14,CN1CC=C(c2c[nH]c3ccc(-c4cccs4)cc23)CC1,19
15,CSc1ccc2[nH]cc(C3=CCN(C)CC3)c2c1,23
16,CCCN1CC=C(c2c[nH]c3ccccc23)CC1,556
17,CN1CC=C(c2c[nH]c3ccc(CO)cc23)CC1,126
18,CN1CC=C(c2c[nH]c3ccc(-c4ccncc4)cc23)CC1,74.1
19,CN1CC=C(c2c[nH]c3ccc(-c4ccc(F)cc4)cc23)CC1,69
20,CC(=O)Oc1ccc2[nH]cc(C3=CCN(C)CC3)c2c1,81.3
21,COc1ccc2[nH]cc(C3=CCN(C)CC3)c2c1,21.1
22,CN1CC=C(c2c[nH]c3ccc([Si](C)(C)C)cc23)CC1,165
23,CN1CC=C(c2c[nH]c3ccc(C4OCCO4)cc23)CC1,87.9

row,SMILES,Ki [nM]
1,CN1CC=C(c2c[nH]c3ccc(OCc4ccccc4)cc23)CC1,111
2,CC(=O)c1ccc2[nH]cc(C3=CCN(C)CC3)c2c1,23
3,CN1CC=C(c2cn(Cc3ccccc3)c3ccccc23)CC1,10000
4,CN1CC=C(c2c[nH]c3ccccc23)CC1,146
5,C1=C(c2c[nH]c3ccccc23)CCN(Cc2ccccc2)C1,923
6,COc1ccc2[nH]cc(C3CCN(C)CC3)c2c1,138
7,CN1CC=C(c2c[nH]c3ccc(-c4cccnc4)cc23)CC1,200
8,CC(=O)Nc1ccc2[nH]cc(C3=CCN(C)CC3)c2c1,77.6
9,CC(O)c1ccc2[nH]cc(C3=CCN(C)CC3)c2c1 (stereo unspecified),221
10,CN1CC=C(c2c[nH]c3ccc(C(N)=O)cc23)CC1,5.3
11,CN1CC=C(c2c[nH]c3ccc(N4C(=O)c5ccccc5C4=O)cc23)CC1,377
12,CN1CC=C(c2c[nH]c3ccc(C#N)cc23)CC1,55
13,CCCN1CC=C(c2c[nH]c3ccc(C(N)=O)cc23)CC1,17
14,CCCN1CC=C(c2c[nH]c3ccc(NC(C)=O)cc23)CC1,37
15,CN1CC=C(c2c[nH]c3ccc(O)cc23)CC1,61.7
16,CN1CC=C(c2c[nH]c3ccc([N+](=O)[O-])cc23)CC1,21.1
17,CN1CC=C(c2c[nH]c3ccc(Cl)cc23)CC1,189
18,CN1CC=C(c2c[nH]c3ccc(Br)cc23)CC1,11
19,CN1CC=C(c2c[nH]c3ccc(S(C)(=O)=O)cc23)CC1,188
20,CN1CC=C(c2c[nH]c3ccc(-c4ccccc4)cc23)CC1,55
21,CN1CC=C(c2c[nH]c3ccc(-c4ccsc4)cc23)CC1,25.1
22,COC(=O)c1ccc2[nH]cc(C3=CCN(C)CC3)c2c1,19.4
23,CN1CCC(c2c[nH]c3ccccc23)(c2c[nH]c3ccccc23)CC1,550
